According to US6686363B2, “Cyclopropyl containing oxazolidinone antibiotics and derivatives thereof” (Kyorin Pharmaceutical Co., Ltd., priority 2001, dated 2004):
In brackets after ≈: the same amount, converted by molar mass.

Legend:
Assay type in all cases: cell-based
[1] = system: Chlamydia pneumoniae ATCCVR-1360; assay: MIC, chlamydial inclusion assay in infected HeLa 229 cells; conditions: ATCCVR1360; Chlamydia pneumoniae ATCCVR-1360 in HeLa 229 cells; 72 hours, lowest concentration with no inclusion
Procedure: C. pneumoniae was tested using minimum essential medium supplemented with 10% heat-inactivated fetal bovine serum, 2 mM L-glutamine, […] cycloheximide and non essential amino acid. HeLa 229 cells were inoculated with 10^4 inclusion-forming units of C. pneumoniae strain per mL. Infected cells were incubated with test compounds in complete medium at 35C in an atmosphere of 5% CO2 for 72 hours. […] The MIC was defined as the lowest concentration at which no inclusion was observed.

[2] = system: Streptococcus pneumoniae PRQR (penicillin resistant, quinolone resistant); assay: MIC, agar dilution method on Mueller-Hinton agar with 5% defibrinated horse blood; conditions: 5% horse blood, 5% CO2, 35C, 24 hours
Procedure: (§1) The following in vitro results were obtained based on an agar dilution method except for C. pneumoniae. The activity is presented as the minimum inhibitory concentration (MIC) S. aureus and M. catarrhalis were tested on Mueller-Hinton agar, using an approximate inoculum of 1×10^4 cfu/spot an incubation temperature of 35C for 24 hours. The MIC was defined as the lowest concentration at which no visible bacterial growth was observed.
(§2) Streptococci and enterococci were tested on Mueller-Hinton agar supplemented with 5% defibrinated horse blood, using an approximate inoculum of 1×10^4 cfu/spot an incubation temperature of 35C in an atmosphere of 5% CO2 for 24 hours. The MIC was defined as the lowest concentration at which no visible bacterial growth was observed.

[3] = system: Enterococcus faecium VRQR (vancomycin resistant, quinolone resistant); assay: as above; conditions: 5% horse blood, 5% CO2, 35C, 24 hours
Procedure: as §1, §2

[4] = system: Streptococcus pneumoniae IID553; assay: as above; conditions: 5% horse blood, 5% CO2, 35C, 24 hours
Procedure: as §1, §2

[5] = system: Streptococcus pyogenes IID692; assay: as above; conditions: 5% horse blood, 5% CO2, 35C, 24 hours
Procedure: as §1, §2

[6] = system: Staphylococcus aureus CR (chloramphenicol resistant); assay: MIC, agar dilution method on Mueller-Hinton agar; conditions: 35C, 24 hours
Procedure: as §1

[7] = system: Staphylococcus aureus Smith; assay: MIC, agar dilution method on Mueller-Hinton agar; conditions: 35C, 24 hours
Procedure: as §1

[8] = system: Staphylococcus aureus MR (methicillin resistant); assay: MIC, agar dilution method on Mueller-Hinton agar; conditions: 35C, 24 hours
Procedure: as §1

[9] = system: Moraxella catarrhalis ATCC25238; assay: MIC, agar dilution method on Mueller-Hinton agar; conditions: 35C, 24 hours
Procedure: as §1

SMILES	MIC [1] [µg/mL]	MIC [2] [µg/mL]	MIC [3] [µg/mL]	MIC [4] [µg/mL]	MIC [5] [µg/mL]	MIC [6] [µg/mL]	MIC [7] [µg/mL]	MIC [8] [µg/mL]	MIC [9] [µg/mL]
N#CC1(c2ccc(N3C[C@H](CNc4ccon4)OC3=O)cc2F)CC1 [example 18, 5(S)-3-[4-(1-Cyanocyclopropan-1-yl)-3-fluorophenyl]-5-[N-(1,2-isoxadiazolyl-3-yl)amino]methyloxazolidin-2-one]	–	1 (≈ 2.92 µM)	1 (≈ 2.92 µM)	1 (≈ 2.92 µM)	1 (≈ 2.92 µM)	16 (≈ 46.7 µM)	0.5 (≈ 1.46 µM)	0.5 (≈ 1.46 µM)	8 (≈ 23.4 µM)
CC(=O)NC[C@H]1CN(c2ccc(N3CCOCC3)c(F)c2)C(=O)O1 [Linezolid, reference compound]	8 (≈ 23.7 µM)	1 (≈ 2.96 µM)	2 (≈ 5.93 µM)	2 (≈ 5.93 µM)	1 (≈ 2.96 µM)	16 (≈ 47.4 µM)	1 (≈ 2.96 µM)	1 (≈ 2.96 µM)	4 (≈ 11.9 µM)
COC(=S)NC[C@H]1CN(c2ccc(C3(C#N)CC3)c(F)c2)C(=O)O1 [example 32, O-Methyl N-[5(S)-3-[4-(1-Cyanocyclopropan-1-yl)-3-fluorophenyl]-2-oxooxazolidin-5-ylmethyl]thiocarbonate]	4 (≈ 11.4 µM)	0.125 (≈ 0.358 µM)	0.25 (≈ 0.716 µM)	0.25 (≈ 0.716 µM)	0.125 (≈ 0.358 µM)	2 (≈ 5.72 µM)	0.125 (≈ 0.358 µM)	0.125 (≈ 0.358 µM)	0.5 (≈ 1.43 µM)

Results, then the molecule that gave them:

MIC [1] [µg/mL]	MIC [2] [µg/mL]	MIC [3] [µg/mL]	MIC [4] [µg/mL]	MIC [5] [µg/mL]	MIC [6] [µg/mL]	MIC [7] [µg/mL]	MIC [8] [µg/mL]	MIC [9] [µg/mL]	SMILES
0.5 (≈ 1.58 µM)	1 (≈ 3.15 µM)	0.5 (≈ 1.58 µM)	1 (≈ 3.15 µM)	0.5 (≈ 1.58 µM)	4 (≈ 12.6 µM)	0.5 (≈ 1.58 µM)	0.5 (≈ 1.58 µM)	4 (≈ 12.6 µM)	CC(=O)NC[C@H]1CN(c2ccc(C3(C#N)CC3)c(F)c2)C(=O)O1 [example 7, N-[5(S)-3-[4-(1-Cyanocyclopropan-1-yl)-3-fluorophenyl]-2-oxooxazolidin-5-ylmethyl]acetamide]
0.25 (≈ 0.75 µM)	0.25 (≈ 0.75 µM)	0.25 (≈ 0.75 µM)	0.25 (≈ 0.75 µM)	0.125 (≈ 0.375 µM)	0.5 (≈ 1.5 µM)	0.125 (≈ 0.375 µM)	0.125 (≈ 0.375 µM)	0.5 (≈ 1.5 µM)	CC(=S)NC[C@H]1CN(c2ccc(C3(C#N)CC3)c(F)c2)C(=O)O1 [example 8, N-[5(S)-3-[4-(1-Cyanocyclopropan-1-yl)-3-fluorophenyl]-2-oxooxazolidin-5-ylmethyl]thioacetamide]
